Test results reported in the NIST ThermoML archive (doi:10.1021/je020153x).

Experiment: mn = molality of the nth substance listed, in mol/kg
Conditions: 101.3 kPa, Liquid; for viscosity: Capillary tube (Ostwald / Ubbelohde) method; for mass density: Vibrating tube method

O=C[C@H](O)[C@@H](O)[C@H](O)[C@H](O)CO [D-glucose] + O
Conditions	mass density, 293.15 K [kg/m3]	mass density, 303.15 K [kg/m3]	mass density, 313.15 K [kg/m3]	viscosity, 293.15 K [mPa·s]	viscosity, 303.15 K [mPa·s]	viscosity, 313.15 K [mPa·s]
m1 = 0.5	1030.7	1027.7	1024	1.256	0.988	0.801
m1 = 1	1059.7	1056.4	1052.4	1.587	1.231	0.985
m1 = 1.5	1085.4	1081.8	1077.6	1.993	1.523	1.205
m1 = 2	1108.8	1105	1100.6	2.512	1.89	1.475
m1 = 2.5	1129.8	1125.7	1121.2	3.159	2.341	1.804
m1 = 3	1148.8	1144.6	1139.9	3.947	2.873	2.182
m1 = 3.5	1166.3	1161.9	1157.1	4.96	3.553	2.66
m1 = 4	1182.2	1177.7	1172.7	6.131	4.309	3.175

[Cl-].[Na+] [sodium chloride] + O
Conditions	mass density, 293.15 K [kg/m3]	mass density, 303.15 K [kg/m3]	mass density, 313.15 K [kg/m3]	viscosity, 293.15 K [mPa·s]	viscosity, 303.15 K [mPa·s]	viscosity, 313.15 K [mPa·s]
m1 = 0.5	1018.6	1015.7	1011.9	1.041	0.835	0.688
m1 = 1	1037.8	1034.4	1030.4	1.087	0.873	0.722
m1 = 1.5	1056.3	1052.6	1048.4	1.138	0.918	0.76
m1 = 2	1074.1	1070.1	1065.7	1.196	0.966	0.802
m1 = 2.5	1091.4	1087.2	1082.5	1.264	1.021	0.848
m1 = 3	1107.8	1103.4	1098.6	1.333	1.077	0.895
m1 = 3.5	1123.9	1119.2	1114.3	1.411	1.14	0.945
m1 = 4	1139.2	1134.4	1129.3	1.499	1.208	1

O [water] + O=C[C@H](O)[C@@H](O)[C@H](O)[C@H](O)CO
m2 = 0
Conditions	viscosity [mPa·s]
293.15 K	1.002
303.15 K	0.797
313.15 K	0.653

O [water] + [Cl-].[Na+]
m2 = 0
Conditions	viscosity [mPa·s]
293.15 K	1.002
303.15 K	0.797
313.15 K	0.653
